Measured values from US9982007B2, “Cocrystals of progesterone” (AMRI SSCI, LLC, priority 2012, dated 2018).

Experiment: Powder dissolution
Format: physicochemical
Details: compared to commercially available progesterone

dissolution rate: increase in dissolution rate
Substance: progesterone:vanillic acid [Cocrystal 1]
progesterone concentration over time: sustained progesterone concentration over time
